Numbers after ± are expanded uncertainties.
Details: Fluid (supercritical or subcritical phases), Cylindrical cavity resonance method

C[Si]1(C)O[Si](C)(C)O[Si](C)(C)O[Si](C)(C)O1 [octamethylcyclotetrasiloxane]
Details | speed of sound [m/s]
450 K, 38.9 kPa | 110.35 ± 0.45
450 K, 46.7 kPa | 109.66 ± 0.45
450 K, 57.41 kPa | 108.8 ± 0.45
450 K, 62.89 kPa | 108.3 ± 0.45
450 K, 69.33 kPa | 107.73 ± 0.44
465 K, 31.29 kPa | 113.04 ± 0.46
465 K, 32.63 kPa | 112.99 ± 0.46
465 K, 36.51 kPa | 112.75 ± 0.46
465 K, 40.99 kPa | 112.32 ± 0.46
465 K, 46.84 kPa | 111.94 ± 0.46
465 K, 47.85 kPa | 111.91 ± 0.46
465 K, 49.18 kPa | 111.72 ± 0.46
465 K, 57.21 kPa | 111.2 ± 0.46
465 K, 58.99 kPa | 110.98 ± 0.46
465 K, 61.46 kPa | 110.82 ± 0.46
465 K, 68.51 kPa | 110.33 ± 0.45
465 K, 70.69 kPa | 110.06 ± 0.45
465 K, 73.59 kPa | 109.87 ± 0.45
465 K, 74.87 kPa | 109.83 ± 0.45
465 K, 77.48 kPa | 109.53 ± 0.45
465 K, 81.72 kPa | 109.28 ± 0.45
465 K, 87.87 kPa | 108.72 ± 0.45
465 K, 92.89 kPa | 108.29 ± 0.45
465 K, 97.68 kPa | 107.96 ± 0.44
465 K, 101.01 kPa | 107.53 ± 0.44
465 K, 105.11 kPa | 107.28 ± 0.44
465 K, 106.95 kPa | 107.18 ± 0.44
465 K, 111.4 kPa | 106.69 ± 0.44
465 K, 116.93 kPa | 106.3 ± 0.44
465 K, 121.67 kPa | 105.76 ± 0.43
465 K, 123.48 kPa | 105.66 ± 0.43
480 K, 42.7 kPa | 114.02 ± 0.47
480 K, 54.67 kPa | 113.2 ± 0.46
480 K, 65.08 kPa | 112.48 ± 0.46
480 K, 71.3 kPa | 112.04 ± 0.46
480 K, 85.5 kPa | 111.07 ± 0.46
480 K, 92.46 kPa | 110.5 ± 0.45
480 K, 109.21 kPa | 109.24 ± 0.45
480 K, 118.88 kPa | 108.49 ± 0.45
480 K, 129.21 kPa | 107.67 ± 0.44
480 K, 140.39 kPa | 106.77 ± 0.44
480 K, 152.36 kPa | 105.77 ± 0.43
480 K, 165.42 kPa | 104.64 ± 0.43
495 K, 27.45 kPa | 117.14 ± 0.48
495 K, 36.2 kPa | 116.66 ± 0.48
495 K, 47.54 kPa | 115.98 ± 0.47
495 K, 143.41 kPa | 109.74 ± 0.45
495 K, 159.7 kPa | 108.43 ± 0.45
495 K, 160.4 kPa | 108.39 ± 0.45
495 K, 174.53 kPa | 107.35 ± 0.44
495 K, 186.64 kPa | 106.44 ± 0.44
495 K, 198.61 kPa | 105.49 ± 0.43
495 K, 224.52 kPa | 103.41 ± 0.43

C[Si]1(C)O[Si](C)(C)O[Si](C)(C)O[Si](C)(C)O[Si](C)(C)O1 [decamethylcyclopentasiloxane]
Details | speed of sound [m/s]
485 K, 35.39 kPa | 101.91 ± 0.52
485 K, 43.63 kPa | 101.14 ± 0.52
485 K, 49.43 kPa | 100.67 ± 0.51
485 K, 55.24 kPa | 100.36 ± 0.51
485 K, 63.6 kPa | 99.2 ± 0.51
485 K, 64.42 kPa | 99.13 ± 0.51
485 K, 74.85 kPa | 98.38 ± 0.5
485 K, 82.92 kPa | 97.28 ± 0.5
485 K, 85.12 kPa | 97.17 ± 0.5
500 K, 22.13 kPa | 104.94 ± 0.53
500 K, 22.48 kPa | 104.92 ± 0.53
500 K, 26.3 kPa | 104.68 ± 0.53
500 K, 31.33 kPa | 104.22 ± 0.53
500 K, 32.27 kPa | 104.14 ± 0.53
500 K, 33.93 kPa | 103.96 ± 0.53
500 K, 39.9 kPa | 103.53 ± 0.53
500 K, 42.7 kPa | 103.27 ± 0.53
500 K, 47.88 kPa | 102.87 ± 0.52
500 K, 51.58 kPa | 102.58 ± 0.52
500 K, 55.42 kPa | 102.2 ± 0.52
500 K, 64.64 kPa | 101.5 ± 0.52
500 K, 64.96 kPa | 101.44 ± 0.52
500 K, 73.64 kPa | 100.81 ± 0.51
500 K, 74.95 kPa | 100.63 ± 0.51
500 K, 78.98 kPa | 100.22 ± 0.51
500 K, 85.9 kPa | 99.5 ± 0.51
500 K, 95.37 kPa | 98.56 ± 0.5
500 K, 105.42 kPa | 97.6 ± 0.5
500 K, 116.6 kPa | 96.56 ± 0.49
510 K, 34.55 kPa | 105.2 ± 0.54
510 K, 43.26 kPa | 104.68 ± 0.53
510 K, 51.27 kPa | 104.86 ± 0.53
510 K, 57.1 kPa | 103.49 ± 0.53
510 K, 62.78 kPa | 103.98 ± 0.53
510 K, 72.53 kPa | 102.37 ± 0.52
510 K, 82.51 kPa | 101.58 ± 0.52
510 K, 89.89 kPa | 100.87 ± 0.52
510 K, 92.75 kPa | 100.75 ± 0.51
510 K, 103.28 kPa | 99.89 ± 0.51
510 K, 110.69 kPa | 99.98 ± 0.51
